What was measured:
Type in all cases: functional
Lolium rigidum [1] = experiment: Herbicidal activity against Lolium rigidum accession A10 assessed as emergence rate applied at 1 times pre-emergence recommended rate relative to untreated control
Lolium rigidum [2] = experiment: Herbicidal activity against Lolium rigidum accession A09 assessed as emergence rate applied at 1 times pre-emergence recommended rate relative to untreated control
Lolium rigidum [3] = experiment: Herbicidal activity against Lolium rigidum accession A06 assessed as fresh weight reduction applied at 1 times pre-emergence recommended rate relative to untreated control; parameters: scale not given: the % may be the effect or the level left
Lolium rigidum [4] = experiment: Herbicidal activity against Lolium rigidum accession A05 assessed as fresh weight reduction applied at 1 times pre-emergence recommended rate relative to untreated control; parameters: scale not given: the % may be the effect or the level left
Lolium rigidum [5] = experiment: Herbicidal activity against Lolium rigidum accession A12 assessed as fresh weight reduction applied at 1 times pre-emergence recommended rate relative to untreated control; parameters: scale not given: the % may be the effect or the level left
Lolium rigidum [6] = experiment: Herbicidal activity against Lolium rigidum accession A02 assessed as fresh weight reduction applied at 1 times pre-emergence recommended rate relative to untreated control; parameters: scale not given: the % may be the effect or the level left
Lolium rigidum [7] = experiment: Herbicidal activity against Lolium rigidum accession A12 assessed as emergence rate applied at 1 times pre-emergence recommended rate relative to untreated control
Lolium rigidum [8] = experiment: Herbicidal activity against Lolium rigidum accession A11 assessed as fresh weight reduction applied at 1 times pre-emergence recommended rate relative to untreated control; parameters: scale not given: the % may be the effect or the level left
Lolium rigidum [9] = experiment: Herbicidal activity against Lolium rigidum accession A11 assessed as emergence rate applied at 1 times pre-emergence recommended rate relative to untreated control
Lolium rigidum [10] = experiment: Herbicidal activity against Lolium rigidum accession A13 assessed as emergence rate applied at 1 times pre-emergence recommended rate relative to untreated control
Lolium rigidum [11] = experiment: Herbicidal activity against Lolium rigidum accession A02 assessed as emergence rate applied at 1 times pre-emergence recommended rate relative to untreated control
Lolium rigidum [12] = experiment: Herbicidal activity against Lolium rigidum accession A04 assessed as emergence rate applied at 1 times pre-emergence recommended rate relative to untreated control
Lolium rigidum [13] = experiment: Herbicidal activity against Lolium rigidum accession A01 assessed as emergence rate applied at 1 times pre-emergence recommended rate relative to untreated control
Lolium rigidum [14] = experiment: Herbicidal activity against Lolium rigidum accession A14 assessed as emergence rate applied at 1 times pre-emergence recommended rate relative to untreated control
Lolium rigidum [15] = experiment: Herbicidal activity against Lolium rigidum accession A03 assessed as emergence rate applied at 1 times pre-emergence recommended rate relative to untreated control
Lolium rigidum [16] = experiment: Herbicidal activity against Lolium rigidum accession A05 assessed as emergence rate applied at 1 times pre-emergence recommended rate relative to untreated control
Lolium rigidum [17] = experiment: Herbicidal activity against Lolium rigidum accession A13 assessed as fresh weight reduction applied at 1 times pre-emergence recommended rate relative to untreated control; parameters: scale not given: the % may be the effect or the level left
Lolium rigidum [18] = experiment: Herbicidal activity against Lolium rigidum accession A01 assessed as fresh weight reduction applied at 1 times pre-emergence recommended rate relative to untreated control; parameters: scale not given: the % may be the effect or the level left
Lolium rigidum [19] = experiment: Herbicidal activity against Lolium rigidum accession A09 assessed as fresh weight reduction applied at 1 times pre-emergence recommended rate relative to untreated control; parameters: scale not given: the % may be the effect or the level left
Lolium rigidum [20] = experiment: Herbicidal activity against Lolium rigidum accession A08 assessed as fresh weight reduction applied at 1 times pre-emergence recommended rate relative to untreated control; parameters: scale not given: the % may be the effect or the level left
Lolium rigidum [21] = experiment: Herbicidal activity against Lolium rigidum accession A15 assessed as emergence rate applied at 1 times pre-emergence recommended rate relative to untreated control
Lolium rigidum [22] = experiment: Herbicidal activity against Lolium rigidum accession A10 assessed as fresh weight reduction applied at 1 times pre-emergence recommended rate relative to untreated control; parameters: scale not given: the % may be the effect or the level left
Lolium rigidum [23] = experiment: Herbicidal activity against Lolium rigidum accession A04 assessed as fresh weight reduction applied at 1 times pre-emergence recommended rate relative to untreated control; parameters: scale not given: the % may be the effect or the level left
Lolium rigidum [24] = experiment: Herbicidal activity against Lolium rigidum accession A07 assessed as fresh weight reduction applied at 1 times pre-emergence recommended rate relative to untreated control; parameters: scale not given: the % may be the effect or the level left
Lolium rigidum [25] = experiment: Herbicidal activity against Lolium rigidum accession A07 assessed as emergence rate applied at 1 times pre-emergence recommended rate relative to untreated control
Lolium rigidum [26] = experiment: Herbicidal activity against Lolium rigidum accession A08 assessed as emergence rate applied at 1 times pre-emergence recommended rate relative to untreated control
Lolium rigidum [27] = experiment: Herbicidal activity against Lolium rigidum accession A14 assessed as fresh weight reduction applied at 1 times pre-emergence recommended rate relative to untreated control; parameters: scale not given: the % may be the effect or the level left
Lolium rigidum [28] = experiment: Herbicidal activity against Lolium rigidum accession A03 assessed as fresh weight reduction applied at 1 times pre-emergence recommended rate relative to untreated control; parameters: scale not given: the % may be the effect or the level left
Lolium rigidum [29] = experiment: Herbicidal activity against Lolium rigidum accession A06 assessed as emergence rate applied at 1 times pre-emergence recommended rate relative to untreated control
Lolium rigidum [30] = experiment: Herbicidal activity against Lolium rigidum accession A15 assessed as fresh weight reduction applied at 1 times pre-emergence recommended rate relative to untreated control; parameters: scale not given: the % may be the effect or the level left
Lolium rigidum [31] = experiment: Herbicidal activity against Lolium rigidum accession A01 assessed as emergence rate applied at recommended rate incorporated into the soil prior weed seedlings relative to untreated control
Lolium rigidum [32] = experiment: Herbicidal activity against Lolium rigidum accession A12 assessed as emergence rate applied at recommended rate incorporated into the soil prior weed seedlings relative to untreated control
Lolium rigidum [33] = experiment: Herbicidal activity against Lolium rigidum accession A03 assessed as emergence rate applied at recommended rate incorporated into the soil prior weed seedlings relative to untreated control
Lolium rigidum [34] = experiment: Herbicidal activity against Lolium rigidum accession A06 assessed as fresh weight reduction applied at recommended rate incorporated into the soil prior weed seedlings relative to untreated control; parameters: scale not given: the % may be the effect or the level left
Lolium rigidum [35] = experiment: Herbicidal activity against Lolium rigidum accession A13 assessed as emergence rate applied at recommended rate incorporated into the soil prior weed seedlings relative to untreated control
Lolium rigidum [36] = experiment: Herbicidal activity against Lolium rigidum accession A10 assessed as emergence rate applied at recommended rate incorporated into the soil prior weed seedlings relative to untreated control
Lolium rigidum [37] = experiment: Herbicidal activity against Lolium rigidum accession A07 assessed as emergence rate applied at recommended rate incorporated into the soil prior weed seedlings relative to untreated control
Lolium rigidum [38] = experiment: Herbicidal activity against Lolium rigidum accession A04 assessed as fresh weight reduction applied at recommended rate incorporated into the soil prior weed seedlings relative to untreated control; parameters: scale not given: the % may be the effect or the level left
Lolium rigidum [39] = experiment: Herbicidal activity against Lolium rigidum accession A10 assessed as fresh weight reduction applied at recommended rate incorporated into the soil prior weed seedlings relative to untreated control; parameters: scale not given: the % may be the effect or the level left
Lolium rigidum [40] = experiment: Herbicidal activity against Lolium rigidum accession A03 assessed as fresh weight reduction applied at recommended rate incorporated into the soil prior weed seedlings relative to untreated control; parameters: scale not given: the % may be the effect or the level left
Lolium rigidum [41] = experiment: Herbicidal activity against Lolium rigidum accession A01 assessed as fresh weight reduction applied at recommended rate incorporated into the soil prior weed seedlings relative to untreated control; parameters: scale not given: the % may be the effect or the level left
Lolium rigidum [42] = experiment: Herbicidal activity against Lolium rigidum accession A05 assessed as fresh weight reduction applied at recommended rate incorporated into the soil prior weed seedlings relative to untreated control; parameters: scale not given: the % may be the effect or the level left
Lolium rigidum [43] = experiment: Herbicidal activity against Lolium rigidum accession A02 assessed as fresh weight reduction applied at recommended rate incorporated into the soil prior weed seedlings relative to untreated control; parameters: scale not given: the % may be the effect or the level left
Lolium rigidum [44] = experiment: Herbicidal activity against Lolium rigidum accession A11 assessed as fresh weight reduction applied at recommended rate incorporated into the soil prior weed seedlings relative to untreated control; parameters: scale not given: the % may be the effect or the level left
Lolium rigidum [45] = experiment: Herbicidal activity against Lolium rigidum accession A15 assessed as fresh weight reduction applied at recommended rate incorporated into the soil prior weed seedlings relative to untreated control; parameters: scale not given: the % may be the effect or the level left
Lolium rigidum [46] = experiment: Herbicidal activity against Lolium rigidum accession A12 assessed as fresh weight reduction applied at recommended rate incorporated into the soil prior weed seedlings relative to untreated control; parameters: scale not given: the % may be the effect or the level left
Lolium rigidum [47] = experiment: Herbicidal activity against Lolium rigidum accession A14 assessed as fresh weight reduction applied at recommended rate incorporated into the soil prior weed seedlings relative to untreated control; parameters: scale not given: the % may be the effect or the level left
Lolium rigidum [48] = experiment: Herbicidal activity against Lolium rigidum accession A09 assessed as fresh weight reduction applied at recommended rate incorporated into the soil prior weed seedlings relative to untreated control; parameters: scale not given: the % may be the effect or the level left
Lolium rigidum [49] = experiment: Herbicidal activity against Lolium rigidum accession A08 assessed as fresh weight reduction applied at recommended rate incorporated into the soil prior weed seedlings relative to untreated control; parameters: scale not given: the % may be the effect or the level left
Lolium rigidum [50] = experiment: Herbicidal activity against Lolium rigidum accession A08 assessed as emergence rate applied at recommended rate incorporated into the soil prior weed seedlings relative to untreated control
Lolium rigidum [51] = experiment: Herbicidal activity against Lolium rigidum accession A09 assessed as emergence rate applied at recommended rate incorporated into the soil prior weed seedlings relative to untreated control
Lolium rigidum [52] = experiment: Herbicidal activity against Lolium rigidum accession A05 assessed as emergence rate applied at recommended rate incorporated into the soil prior weed seedlings relative to untreated control
Lolium rigidum [53] = experiment: Herbicidal activity against Lolium rigidum accession A11 assessed as emergence rate applied at recommended rate incorporated into the soil prior weed seedlings relative to untreated control
Lolium rigidum [54] = experiment: Herbicidal activity against Lolium rigidum accession A07 assessed as fresh weight reduction applied at recommended rate incorporated into the soil prior weed seedlings relative to untreated control; parameters: scale not given: the % may be the effect or the level left
Lolium rigidum [55] = experiment: Herbicidal activity against Lolium rigidum accession A06 assessed as emergence rate applied at recommended rate incorporated into the soil prior weed seedlings relative to untreated control
Lolium rigidum [56] = experiment: Herbicidal activity against Lolium rigidum accession A15 assessed as emergence rate applied at recommended rate incorporated into the soil prior weed seedlings relative to untreated control
Lolium rigidum [57] = experiment: Herbicidal activity against Lolium rigidum accession A02 assessed as emergence rate applied at recommended rate incorporated into the soil prior weed seedlings relative to untreated control
Lolium rigidum [58] = experiment: Herbicidal activity against Lolium rigidum accession A14 assessed as emergence rate applied at recommended rate incorporated into the soil prior weed seedlings relative to untreated control
Lolium rigidum [59] = experiment: Herbicidal activity against Lolium rigidum accession A13 assessed as fresh weight reduction applied at recommended rate incorporated into the soil prior weed seedlings relative to untreated control; parameters: scale not given: the % may be the effect or the level left
Lolium rigidum [60] = experiment: Herbicidal activity against Lolium rigidum accession A04 assessed as emergence rate applied at recommended rate incorporated into the soil prior weed seedlings relative to untreated control

For `CCCN(CCC)C(=O)SCc1ccccc1` [PROSULFOCARB], the Activity (Lolium rigidum [1]) was 0%, the Activity (Lolium rigidum [2]) was 0% and the Activity (Lolium rigidum [3]) was 100%. For the same compound, the Activity (Lolium rigidum [4]) was 100%, the Activity (Lolium rigidum [5]) was 100% and the Activity (Lolium rigidum [6]) was 100%. For the same compound, the Activity (Lolium rigidum [7]) was 0%, the Activity (Lolium rigidum [8]) was 99% and the Activity (Lolium rigidum [9]) was 1%. It also gave an Activity (Lolium rigidum [10]) of 0%, an Activity (Lolium rigidum [11]) of 0% and an Activity (Lolium rigidum [12]) of 1%. It also gave an Activity (Lolium rigidum [13]) of 0%, an Activity (Lolium rigidum [14]) of 0% and an Activity (Lolium rigidum [15]) of 0%. The Activity (Lolium rigidum [16]) was 0%, the Activity (Lolium rigidum [17]) was 100% and the Activity (Lolium rigidum [18]) was 100%. It also gave an Activity (Lolium rigidum [19]) of 100%, an Activity (Lolium rigidum [20]) of 100% and an Activity (Lolium rigidum [21]) of 0%. The Activity (Lolium rigidum [22]) was 100%, the Activity (Lolium rigidum [23]) was 98% and the Activity (Lolium rigidum [24]) was 100%. It also gave an Activity (Lolium rigidum [25]) of 0%, an Activity (Lolium rigidum [26]) of 0% and an Activity (Lolium rigidum [27]) of 100%. It also gave an Activity (Lolium rigidum [28]) of 100%, an Activity (Lolium rigidum [29]) of 0% and an Activity (Lolium rigidum [30]) of 100%.

`CCOP(=S)(OCC)SCSC(C)(C)C` [TERBUFOS] gave an Activity (Lolium rigidum [31]) of 99%, an Activity (Lolium rigidum [32]) of 93% and an Activity (Lolium rigidum [33]) of 98%. For the same compound, the Activity (Lolium rigidum [34]) was 0%, the Activity (Lolium rigidum [35]) was 100% and the Activity (Lolium rigidum [36]) was 95%. For the same compound, the Activity (Lolium rigidum [37]) was 93%, the Activity (Lolium rigidum [38]) was 0% and the Activity (Lolium rigidum [39]) was 0%. For the same compound, the Activity (Lolium rigidum [40]) was 0%, the Activity (Lolium rigidum [41]) was 0% and the Activity (Lolium rigidum [42]) was 1%. It also gave an Activity (Lolium rigidum [43]) of 0%, an Activity (Lolium rigidum [44]) of 0% and an Activity (Lolium rigidum [45]) of 0%. For the same compound, the Activity (Lolium rigidum [46]) was 2%, the Activity (Lolium rigidum [47]) was 1% and the Activity (Lolium rigidum [48]) was 0%. The Activity (Lolium rigidum [49]) was 0%, the Activity (Lolium rigidum [50]) was 100% and the Activity (Lolium rigidum [51]) was 99%. It also gave an Activity (Lolium rigidum [52]) of 95%, an Activity (Lolium rigidum [53]) of 98% and an Activity (Lolium rigidum [54]) of 0%. For the same compound, the Activity (Lolium rigidum [55]) was 97%, the Activity (Lolium rigidum [56]) was 99% and the Activity (Lolium rigidum [57]) was 97%. It also gave an Activity (Lolium rigidum [58]) of 94%, an Activity (Lolium rigidum [59]) of 0% and an Activity (Lolium rigidum [60]) of 100%.
